Test results as given in patent US10722484B2, “Methods of cancer treatment” (K-Gen, Inc., priority 2016, dated 2020).

Legend:
[1] = test system: A549 lung cancer cell line; experiment: Combination viability/proliferation assays (384-well IC50 ratio, 96-well MacSynergy II); format: cell-based; details: for effect in combination with the PKC activator compounds in inhibiting the growth of A549 cells: PKC activator compounds (K101A, K101E, K102); for Combination in A549: K101A (synergism/antagonism): agent assayed in combination with K101A; for Combination in A549: K101A (synergism/antagonism) / Combination in A549: K102 (synergism/antagonism): * 2-3 concentrations, # full concentration ranges; for Combination in A549: K101E (synergism/antagonism): agent assayed in combination with K101E; for Combination in A549: K102 (synergism/antagonism): agent assayed in combination with K102
Panc1 = experiment: Combination viability/proliferation assays; format: cell-based; details: for Combination effect, Panel: K102: agent in combination with K102
Description: (§1) A 96-well MacSynergy II format for combination test was also used. […] The analysis was done with the SQRT(Data) scale and the four parameter Hill curve was fitted using XLfit5.1 (the MacSynergy II Excel Spreadsheet) for the inhibition data. Synergy (positive number) or Antagonism (negative number) volumes were calculated. […] Three-dimensional MacSynergy II graphs were generated where positive values indicated synergism and negative values indicated antagonism.

Panc2.13 = experiment: Combination viability/proliferation assays; format: cell-based
Description: as §1

[2] = test system: colon cancer cell line Colo205; experiment: MacSynergy combination experiments; format: cell-based
Description: as §1

[3] = test system: HL-60 human promyelocytic leukemia cells; experiment: Combination viability/proliferation assays
Description: (§2) Briefly, cells at density of 1,000-10,000 cells/well in 96-well plates or 200-1600 cells/well in 384-well plates were seeded and incubated at 37° C. for 24 hours before addition of compounds. A series of 9 different concentrations of compound stocks (500×) were prepared by 3-fold serial dilutions in DMSO. […] After 96 hours of incubation, 35 μL or 50 μL of CellTiter Glo reagent (Promega) was added to each well and luminescence was measured after 10 minutes using EnVision (PerkinElmer). Luminescence from cells treated with DMSO alone was set as Max and % of inhibition was calculated as follows: Inhibition %=(Max-Sample value)/Max*100. Data were analyzed using XLfit software (ID Business Solutions Ltd.) or GraphPad software and IC50, relative IC50, and % of top inhibition were calculated.
(§3) The top concentration for the tested PKC activator compound was set at roughly the IC50 when the same testing compound was used as a single agent assayed in the same cell line. The next dose was either 3-fold or 10-fold dilution from the top concentration.

[4] = test system: MV-4-11 human myelomonocytic leukemia; experiment: Combination viability/proliferation assays; details: K101A (0.1 μM) or K102 (0.01 μM)
Description: as §2, §3

[5] = test system: Namalwa (Burkitt's lymphoma); experiment: Combination viability/proliferation assays; details: K101A (0.1 μM) or K102 (0.001 μM)
Description: as §2
Various drugs or compounds (Table 10) were screened and assayed in 384-well plates as 9-point 3-fold dilution series alone and in combination with 2-3 doses of the specified PKC activator compounds (e.g., K101A, K101E, and K102). The top concentration for the tested PKC activator compound was set at roughly the IC50 when the same testing compound was used as a single agent assayed in the same cell line. The next dose was either 3-fold or 10-fold dilution from the top concentration. […]

[6] = test system: THP-1 human acute monocytic leukemia cells; experiment: Combination viability/proliferation assays; details: K101A (0.3 μM) and K102 (0.005 μM)
Description: as §2, §3

[7] = test system: Mino (Mantle cell lymphoma); experiment: Combination viability/proliferation assays; details: Mino; K101A (0.1 μM) or K102 (0.001 μM); especially below 0.1 μM cytarabine
Description: as §2
Various drugs or compounds (Table 10) were screened and assayed in 384-well plates as 9-point 3-fold dilution series alone and in combination with 2-3 doses of the specified PKC activator compounds (e.g., K101A, K101E, and K102). The top concentration for the tested PKC activator compound was set at roughly the IC50 when the same testing compound was used as a single agent assayed in the same cell line. The next dose was either 3-fold or 10-fold dilution from the top concentration.
The PKC activating agents (e.g., K101A, K101E, and K102) in combination with other chemotherapeutic agents, including standard chemotherapies and certain chemotherapeutic agents targeting certain cell signaling pathways, were also examined on cancer cells other than lung cancer cells.

[8] = A549, in combination with 0.005 μM K101A, NC: no change
[9] = A549, in combination with 0.05 μM K101A, NC: no change
[10] = A549, in combination with 0.5 μM K101A, ratio >2 synergistic, <0.5 antagonistic, NC: no change

N.N.[Cl][Pt][Cl] [Cisplatin]
dose range for the strongest synergy ([1]; A549, cisplatin combined with PKC activator compounds (FIG. 6A)): 0.625 to 2.5 µM
Ratio ([…] DMSO IC50/combination IC50) [1, 8]: 0.53
Ratio ([…] DMSO IC50/combination IC50) ([1]; A549, in combination with 0.04 μM K102 (footnote, Cisplatin)): 2.61
Ratio ([…] DMSO IC50/combination IC50) [1, 9]: 0.86
Ratio ([…] DMSO IC50/combination IC50) ([1]; A549, in combination with 0.13 μM K102 (footnote, Cisplatin)): 2.52
Ratio ([…] DMSO IC50/combination IC50) [1, 10]: 2.68
Ratio ([…] DMSO IC50/combination IC50) ([1]; A549, in combination with 1 μM K101E (footnote, Cisplatin)): 1.37
Ratio ([…] DMSO IC50/combination IC50) ([1]; A549, in combination with 3 μM K101E (footnote, Cisplatin)): 1.75
synergy at cisplatin dose levels higher than […] ([1]; A549, with PKC activator compounds): minimal synergy
effect in combination with the PKC activator compounds in inhibiting the growth of A549 cells [1]: strong synergistic effect
Combination in A549: K101A (synergism/antagonism) ([1]; A549): Synergism (strong)
Combination in A549: K101E (synergism/antagonism) ([1]; A549): None
Combination in A549: K102 (synergism/antagonism) ([1]; A549): Synergism (strong)
effect at highest concentrations of combination agents (Panc1; Panc1, with K101A or K102): Slight antagonism
Combination effect, Panel: K102 (Panc1): None
Combination effect, Panel: K102 (Panc1; listed as cisplatin): not
effect in combination with K101A (Panc2.13; Panc2.13, K101A at 1 μM or at 0.67 μM): strong synergy
Combination effect, Panc2.13: K101A (Panc2.13; agent in combination with K101A): Synergism
synergy volume (MacSynergy) ([2]; Colo205, in combination with K101A (column not headed)): 49
synergy volume (MacSynergy) ([2]; Colo205, in combination with K102 (column not headed)): 41

CC1=C(/C=C/C(C)=C/C=C/C(C)=C/C(=O)O)C(C)(C)CCC1 [ATRA, all-trans-retinoic acid]
effect in combination with K101A and K102 [3]: strong synergy
shift of the inhibition curve up ([3]; addition of K101A (0.3 μM) or K102 (0.005 μM), after subtracting inhibition by K101A or K102 alone): 5-40%
shift of the inhibition curve up [4]: 5-20%

CC[C@H](Nc1ncnc2[nH]cnc12)c1nc2cccc(F)c2c(=O)n1-c1ccccc1 [Idelalisib]
Ratio ([…] DMSO IC50/combination IC50) ([1]; A549, in combination with 0.0002 μM K102, NC: no change): 0.81
Ratio ([…] DMSO IC50/combination IC50) ([1]; A549, in combination with 0.002 μM K102, NC: no change): 1.76
Ratio ([…] DMSO IC50/combination IC50) [1, 8]: 1.04
Ratio ([…] DMSO IC50/combination IC50) ([1]; A549, in combination with 0.02 μM K102, NC: no change): 3.55
Ratio ([…] DMSO IC50/combination IC50) [1, 9]: 1.89
Ratio ([…] DMSO IC50/combination IC50) [1, 10]: 5.05
effect in combination with the PKC activator compounds in inhibiting the growth of A549 cells [1]: strong synergy
Combination in A549: K101A (synergism/antagonism) ([1]; A549): Synergism
Combination in A549: K101E (synergism/antagonism) ([1]; A549): Synergism
Combination in A549: K102 (synergism/antagonism) ([1]; A549): Synergism
effect in combination with K101A or K102 [5]: synergistic anti-proliferative effect
increase of inhibition ([5]; roughly 0.03-3 μM idelalisib/CAL-101): at least 20%

Nc1ccn([C@@H]2O[C@H](CO)[C@@H](O)[C@@H]2O)c(=O)n1 [Cytarabine]
effect in combination with K101A and K102 [3]: strong synergy
shift of the inhibition curve to the left ([3]; in combination with K101A (0.3 μM)): half-log
shift of the inhibition curve to the left ([3]; in combination with K102 (0.005 μM)): full-log
effect in combination with K101A and K102 [6]: synergy
effect in combination with K101A or K102 [7]: synergistic anti-proliferative effect
